In PubChem BioAssay AID256 (DTP/NCI, 2004):
Where “and” joins values, the source holds several entries; their conditions need not be identical. Identical values can stand only once. Toxic doses and inconclusive results are not listed.

Tested on: CD2F1 mice, L1210 leukemia ip, survival T/C
Test: NCI In Vivo Anticancer Drug Screen. Data for tumor model L1210 Leukemia (intraperitoneal) in CD2F1 (CDF1) mice
Conditions: endpoint: mean survival time, higher = longer survival
Procedure, shortened: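 Compound-dosed mice with transplantable tumor versus matched vehicle controls; endpoint ratio T/C reported.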

[1] = dose: 50.0 mg/kg/injection, schedule: Q04DX003 (ip), vehicle: saline
[2] = dose: 100.0 mg/kg/injection, schedule: Q04DX003 (ip), vehicle: saline
[3] = dose: 200.0 mg/kg/injection, schedule: Q04DX003 (ip), vehicle: saline
[4] = dose: 12.5 mg/kg/injection, schedule: Q01DX009 (ip), vehicle: saline with Tween-80
[5] = dose: 25.0 mg/kg/injection, schedule: Q01DX009 (ip), vehicle: saline with Tween-80
[6] = dose: 100.0 mg/kg/injection, schedule: Q04DX002 (ip), vehicle: saline with Tween-80
[7] = dose: 200.0 mg/kg/injection, schedule: Q04DX002 (ip), vehicle: saline with Tween-80

With `N#CCCCC1(CCCC#N)OCCO1` the T/C [1] was 100 % of control, the T/C [2] was 102 % of control and the T/C [3] was 107 % of control.

`CCCC(=O)Nc1cc2c3c(c1)CCCN3CCC2` was tested, and the T/C (dose: 6.25 mg/kg/injection, schedule: Q01DX009 (ip), vehicle: saline with Tween-80) was 97 % of control, the T/C [4] was 97 % of control and the T/C [5] was 98 % of control.

`COc1cc(C2=N/C(=C\c3ccc(C(C)C)cc3)C(=O)O2)cc(OC)c1OC` was tested, and the T/C [6] was 90 % of control, the T/C [7] was 90 % of control and the T/C (dose: 400.0 mg/kg/injection, schedule: Q04DX002 (ip), vehicle: saline with Tween-80) was 94 % of control.

`CC1CCc2ccccc2N1CCN` (stereo unspecified) was tested, and the T/C (dose: 100.0 mg/kg/injection, schedule: Q04DX003 (ip), vehicle: Klucel (hydroxypropylcellulose) (HPC)) was 95 % of control.

In the case of `CC1(C(=O)c2ccccc2)CC2C=CC1C2` (stereo unspecified), the T/C (dose: 50.0 mg/kg/injection, schedule: Q04DX002 (ip), vehicle: saline with Tween-80) is reported as 94 % of control, the T/C [6] is reported as 108 % of control and the T/C [7] is reported as 94 % of control.

With `C=CCNC(=O)NCC=C` the T/C (dose: 3.13 mg/kg/injection, schedule: Q01DX009 (ip), vehicle: saline) was 102 % of control and 110 % of control (2×), the T/C (dose: 12.5 mg/kg/injection, schedule: Q01DX005 (ip), vehicle: saline) was 102 % of control and the T/C (dose: 12.5 mg/kg/injection, schedule: Q02DX005 (ip), vehicle: saline) was 97 % of control. For the same compound, the T/C (dose: 12.5 mg/kg/injection, schedule: Q04DX003 (ip), vehicle: saline) was 100 % of control, the T/C (dose: 25.0 mg/kg/injection, schedule: Q01DX005 (ip), vehicle: saline) was 105 % of control and the T/C (dose: 25.0 mg/kg/injection, schedule: Q02DX005 (ip), vehicle: saline) was 100 % of control. For the same compound, the T/C (dose: 25.0 mg/kg/injection, schedule: Q04DX003 (ip), vehicle: saline) was 102 % of control, the T/C (dose: 50.0 mg/kg/injection, schedule: Q01DX005 (ip), vehicle: saline) was 103 % of control and the T/C (dose: 50.0 mg/kg/injection, schedule: Q02DX005 (ip), vehicle: saline) was 103 % of control. The T/C [1] was 103 % of control, the T/C (dose: 100.0 mg/kg/injection, schedule: Q01DX005 (ip), vehicle: saline) was 109 % of control and the T/C (dose: 100.0 mg/kg/injection, schedule: Q01DX006 (ip), vehicle: saline) was 154 % of control. The T/C (dose: 100.0 mg/kg/injection, schedule: Q02DX005 (ip), vehicle: saline) was 105 % of control, the T/C (dose: 100.0 mg/kg/injection, schedule: Q03DX003 (ip), vehicle: saline) was 120 % of control and the T/C [2] was 115 % of control and 109 % of control. For the same compound, the T/C (dose: 200.0 mg/kg/injection, schedule: Q01DX006 (ip), vehicle: saline) was 168 % of control, the T/C (dose: 200.0 mg/kg/injection, schedule: Q02DX005 (ip), vehicle: saline) was 109 % of control and the T/C [3] was 115 % of control and 120 % of control. For the same compound, the T/C (dose: 400.0 mg/kg/injection, schedule: Q02DX005 (ip), vehicle: saline) was 115 % of control and the T/C (dose: 400.0 mg/kg/injection, schedule: Q04DX003 (ip), vehicle: saline) was 97 % of control.

`CN1CCc2c3n(c4ccccc24)C(=O)CCC31` (stereo unspecified) was tested, and the T/C (dose: 6.25 mg/kg/injection, schedule: Q04DX003 (ip), vehicle: saline sonified) was 101 % of control, the T/C (dose: 12.5 mg/kg/injection, schedule: Q04DX003 (ip), vehicle: saline sonified) was 90 % of control and the T/C (dose: 25.0 mg/kg/injection, schedule: Q04DX003 (ip), vehicle: saline sonified) was 97 % of control.

`O=C=Nc1cccc2c(N=C=O)cccc12` was tested, and the T/C [4] was 91 % of control, the T/C [5] was 102 % of control and the T/C (dose: 50.0 mg/kg/injection, schedule: Q01DX009 (ip), vehicle: saline with Tween-80) was 91 % of control.

For `CC(=O)NC1=CC(=O)C(C)=CC1=O`, the T/C (dose: 5.0 mg/kg/injection, schedule: Q01DX001 (ip), vehicle: saline) was 98 % of control and the T/C (dose: 10.0 mg/kg/injection, schedule: Q01DX001 (ip), vehicle: saline) was 98 % of control.
